Laboratory results as given in patent US11407738B2 (Achillion Pharmaceuticals, Inc., priority 2015, dated 2022).

The compounds below were run against Human Factor D (Homo sapiens (Human), UniProt P00746) (assay: Human Factor D assay). Conditions: Table 3; Factor D inhibition, substrate Z-L-Lys-SBzl.
Human Factor D, sequence (P00746 26-253): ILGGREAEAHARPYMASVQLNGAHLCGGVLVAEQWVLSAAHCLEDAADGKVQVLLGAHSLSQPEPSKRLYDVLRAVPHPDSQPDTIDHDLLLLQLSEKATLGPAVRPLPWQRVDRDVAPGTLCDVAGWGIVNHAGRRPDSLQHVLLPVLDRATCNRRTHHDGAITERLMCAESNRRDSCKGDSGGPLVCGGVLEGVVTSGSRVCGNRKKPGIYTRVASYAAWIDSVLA
Assay type: biochemical
Method: Human Factor D (purified from human serum, Complement Technology, Inc.) at 80 nM final concentration is incubated with test compound at various concentrations for 5 min at room temperature in 50 mM Tris, 1M NaCl, pH 7.5. A synthetic substrate Z-L-Lys-SBzl and DTNB (Ellman's reagent) are added to final concentrations of 100 μM each. […] IC50 values are calculated by nonlinear regression of complement Factor D reaction rates as a function of test compound concentration.
In the case of `CC(=O)c1cn(CC(=O)N[C@H](C(=O)Nc2cccc(-c3ccccc3Cl)c2F)[C@@H](C)O)c2ccc(-c3cnc(C)nc3)cc12` [Compound 500], the IC50 is reported as < 1000 nM.
`CC(=O)c1cn(CC(=O)N2C[C@H](F)C[C@H]2C(=O)Nc2cccc(-c3ccccc3Cl)c2F)c2ccc(-c3cnc(O[C@@H]4CO[C@H]5[C@@H]4OC[C@H]5O)nc3)cc12` [Compound 501, (2S,4R)-1-(2-(3-Acetyl-5-(2-((3R,3aR,6R,6aR)-6-hydroxyhexahydrofuro[3,2-b]furan-3-yloxy)pyrimidin-5-yl)-1H-indol-1-yl)acetyl)-N-(2′-chloro-2-fluorobiphenyl-3-yl)-4-fluoropyrrolidine-2-carboxamide] was tested, and the IC50 was < 1000 nM.
With `CC(=O)c1cn(CC(=O)N2C[C@H](F)C[C@H]2C(=O)Nc2cccc(Br)n2)c2ccc(-c3cnc(O[C@@H]4CO[C@H]5[C@@H]4OC[C@H]5O)nc3)cc12` [Compound 502, (2S,4R)-1-(2-(3-Acetyl-5-(2-((3R,3aR,6R,6aR)-6-hydroxyhexahydrofuro[3,2-b]furan-3-yloxy)pyrimidin-5-yl)-1H-indol-1-yl)acetyl)-N-(6-bromopyridin-2-yl)-4-fluoropyrrolidine-2-carboxamide] the IC50 was < 1000 nM.
`CO[C@@H]1CO[C@H]2[C@@H]1OC[C@H]2Oc1ncc(-c2ccc3c(c2)c(C(C)=O)cn3CC(=O)N2C[C@H](F)C[C@H]2C(=O)Nc2cccc(-c3ccccc3Cl)c2F)cn1` [Compound 503, (2S,4R)-1-(2-(3-Acetyl-5-(2-((3R,3aR,6R,6aR)-6-methoxyhexahydrofuro[3,2-b]furan-3-yloxy)pyrimidin-5-yl)-1H-indol-1-yl)acetyl)-N-(2′-chloro-2-fluorobiphenyl-3-yl)-4-fluoropyrrolidine-2-carboxamide] was tested, and the IC50 was < 1000 nM.
For `CC(=O)c1nn(CC(=O)N2C[C@H](F)C[C@H]2C(=O)Nc2cccc(S(F)(F)(F)(F)F)c2)c2ccc(-c3cnc(C)nc3)cc12` [Compound 504, (2S,4R)-1-(2-(3-Acetyl-5-(2-methylpyrimidin-5-yl)-1H-indazol-1-yl)acetyl)-4-fluoro-N-(3-(pentafluoro-λ^6-sulfanyl)phenyl)pyrrolidine-2-carboxamide], the IC50 was < 1000 nM.
In the case of `CC(=O)c1cn(CC(=O)N[C@H](C(=O)Nc2cccc(Br)n2)[C@@H](C)O)c2ccc(-c3cnc(C)nc3)cc12` [Compound 505, (2S,3R)-2-(2-(3-Acetyl-5-(2-methylpyrimidin-5-yl)-1H-indol-1-yl)acetamido)-N-(6-bromopyridin-2-yl)-3-hydroxybutanamide], the IC50 is reported as < 1000 nM.
Work on `CC(=O)c1cn(CC(=O)N(C)[C@H](C(=O)Nc2cccc(-c3ccccc3Cl)c2F)[C@@H](C)O)c2ccc(-c3cnc(C)nc3)cc12` [Compound 506, (2S,3R)-2-(2-(3-Acetyl-5-(2-methylpyrimidin-5-yl)-1H-indol-1-yl)-N-methylacetamido)-N-(2′-chloro-2-fluorobiphenyl-3-yl)-3-hydroxybutanamide] yielded an IC50 of 1000 to 10000 nM.
With `CC(=O)c1cn(CC(=O)NC(CC(F)(F)F)C(=O)Nc2cccc(-c3ccccc3Cl)c2F)c2ccc(-c3cnc(C)nc3)cc12` (stereo not drawn) [Compound 507, 2-(2-(3-Acetyl-5-(2-methylpyrimidin-5-yl)-1H-indol-1-yl)acetamido)-N-(2′-chloro-2-fluorobiphenyl-3-yl)-4,4,4-trifluorobutanamide] the IC50 was > 10000 nM.
`CO[C@@H]1CO[C@H]2[C@@H]1OC[C@H]2Oc1ncc(-c2ccc3c(c2)c(C(C)=O)cn3CC(=O)N2C[C@H](F)C[C@H]2C(=O)Nc2cccc(Br)n2)cn1` [Compound 508, (2S,4R)-1-(2-(3-Acetyl-5-(2-((3R,3aR,6R,6aR)-6-methoxyhexahydrofuro[3,2-b]furan-3-yloxy)pyrimidin-5-yl)-1H-indol-1-yl)acetyl)-N-(6-bromopyridin-2-yl)-4-fluoropyrrolidine-2-carboxamide] was tested, and the IC50 was < 1000 nM.
With `COC(=O)C[C@H]1CCCN1C(=O)Cn1nc(C(C)=O)c2cc(-c3cnc(C)nc3)ccc21` [Compound 509, (R)-methyl 2-(1-(2-(3-acetyl-5-(2-methylpyrimidin-5-yl)-1H-indazol-1-yl)acetyl)pyrrolidin-2-yl)acetate] the IC50 was > 10000 nM.
In the case of `CC(=O)c1nn(CC(=O)N2CCC[C@@H]2CC(=O)O)c2ccc(-c3cnc(C)nc3)cc12` [Compound 510, (R)-2-(1-(2-(3-acetyl-5-(2-methylpyrimidin-5-yl)-1H-indazol-1-yl)acetyl)pyrrolidin-2-yl)acetic acid], the IC50 is reported as > 10000 nM.
`CC(=O)c1nn(CC(=O)N2C[C@H](F)C[C@H]2C(=O)Nc2ccc3c(S(=O)(=O)O)cccc3c2)c2ccc(-c3cnc(C)nc3)cc12` [Compound 511, 6-((2S,4R)-1-(2-(3-Acetyl-5-(2-methylpyrimidin-5-yl)-1H-indazol-1-yl)acetyl)-4-fluoropyrrolidine-2-carboxamido)naphthalene-1-sulfonic Acid] showed an IC50 of 1000 to 10000 nM.
`CC(=O)c1nn(CC(=O)N2C[C@H](F)C[C@H]2C(=O)NC2CCN(c3ccc(C(=O)O)cn3)CC2)c2ccc(-c3cnc(C)nc3)cc12` [Compound 512, 6-(4-((2S,4R)-1-(2-(3-Acetyl-5-(2-methylpyrimidin-5-yl)-1H-indazol-1-yl)acetyl)-4-fluoropyrrolidine-2-carboxamido)piperidin-1-yl)nicotinic Acid] gave an IC50 of 1000 to 10000 nM.
`COC(=O)[C@@H]1C[C@@H](F)CN1C(=O)Cn1nc(C(C)=O)c2cc(-c3cnc(C)nc3)ccc21` [Compound 513, (2S,4R)-methyl 1-(2-(3-acetyl-5-(2-methylpyrimidin-5-yl)-1H-indazol-1-yl)acetyl)-4-fluoropyrrolidine-2-carboxylate] was tested, and the IC50 was > 10000 nM.
`CC(=O)c1nn(CC(=O)N2C[C@H](F)C[C@H]2C(=O)OCc2cccc(Cl)c2F)c2ccc(-c3cnc(C)nc3)cc12` [Compound 515, 3-Chloro-2-fluorobenzyl (2S,4R)-1-(2-(3-acetyl-5-(2-methylpyrimidin-5-yl)-1H-indazol-1-yl)acetyl)-4-fluoropyrrolidine-2-carboxylate] was tested, and the IC50 was 1000 to 10000 nM.
With `CC(=O)c1nn(CC(=O)N2C[C@H](F)C[C@H]2C(=O)SCc2cccc(Cl)c2F)c2ccc(-c3cnc(C)nc3)cc12` [Compound 516, S-(3-Chloro-2-fluorobenzyl) (2S,4R)-1-(2-(3-acetyl-5-(2-methylpyrimidin-5-yl)-1H-indazol-1-yl)acetyl)-4-fluoropyrrolidine-2-carbothioate] the IC50 was 1000 to 10000 nM.
For `CC(=O)c1nn(CC(=O)N2C[C@H](F)C[C@H]2C(=S)NCc2cccc(Cl)c2F)c2ccc(-c3cnc(C)nc3)cc12` [Compound 517, (2S,4R)-1-(2-(3-Acetyl-5-(2-methylpyrimidin-5-yl)-1H-indazol-1-yl)acetyl)-N-(3-chloro-2-fluorobenzyl)-4-fluoropyrrolidine-2-carbothioamide], the IC50 was < 1000 nM.
In the case of `CC(=O)c1nn2c3ccc(cc13)-c1cnc(nc1)NCCCCCCCCC/C=C\c1cc(Cl)c(F)c(c1)CNC(=O)[C@@H]1C[C@@H](F)CN1C(=O)C2` [Compound 518, (5^2S,5^4R,Z)-2^3-acetyl-9^5-chloro-5^4,9^6-difluoro-2^1H-7,21-diaza-2(5,1)-indazola-1(5,2)-pyrimidina-5(1,2)-pyrrolidina-9(1,3)-benzenacyclohenico-saphan-10-ene-4,6-dione], the IC50 is reported as < 1000 nM.
In the case of `CC(=O)c1nn(CC(=O)N2C[C@H](F)C[C@H]2C(=O)Nc2cccc(-c3ccc4scnc4c3)c2F)c2ccc(-c3cnc4cc(C)nn4c3)cc12` [Compound 519, (2S,4R)-1-(2-(3-acetyl-5-(2-methylpyrazolo[1,5-a]pyrimidin-6-yl)-1H-indazol-1-yl)acetyl)-N-(3-(benzo[d]thiazol-5-yl)-2-fluorophenyl)-4-fluoropyrrolidine-2-carboxamide], the IC50 is reported as < 1000 nM.
`CC(=O)c1nn(CC(=O)N2C[C@H](F)C[C@H]2C(=O)Nc2cccc(-c3ccc4scnc4c3)c2F)c2ccc(-c3cnc(C)nc3)cc12` [Compound 520, (2S,4R)-1-(2-(3-acetyl-5-(2-methylpyrimidin-5-yl)-1H-indazol-1-yl)acetyl)-N-(3-(benzo[d]thiazol-5-yl)-2-fluorophenyl)-4-fluoropyrrolidine-2-carboxamide] was tested, and the IC50 was < 1000 nM.
For `CC(=O)c1nn(CC(=O)N2C[C@H](F)C[C@H]2C(=O)Nc2cccc(-c3cc(S(=O)(=O)NC4CC4)ccc3Cl)c2F)c2ccc(-c3cnc(C)nc3)cc12` [Compound 521, (2S,4R)-1-(2-(3-acetyl-5-(2-methylpyrimidin-5-yl)-1H-indazol-1-yl)acetyl)-N-(2′-chloro-5′-(N-cyclopropyl-sulfamoyl)-2-fluorobiphenyl-3-yl)-4-fluoropyrrolidine-2-carboxamide], the IC50 was < 1000 nM.
With `CC(=O)Cc1nn(CC(=O)N2C[C@H](F)C[C@H]2C(=O)Nc2cccc(Br)n2)c2ccc(-c3cnc(C)nc3)cc12` [Compound 522, (2S,4R)-N-(6-bromopyridin-2-yl)-4-fluoro-1-(2-(5-(2-methylpyrimidin-5-yl)-3-(2-oxopropyl)-1H-indazol-1-yl)acetyl)pyrrolidine-2-carboxamide] the IC50 was < 1000 nM.
In the case of `CC(=O)c1nn(CC(=O)N2C[C@H](F)C[C@H]2C(=O)N2CCn3c(nnc3C(F)(F)F)C2)c2ccc(-c3cnc(C)nc3)cc12` [Compound 524, 2-(3-acetyl-5-(2-methylpyrimidin-5-yl)-1H-indazol-1-yl)-1-((2S,4R)-4-fluoro-2-(3-(trifluoromethyl)-5,6,7,8-tetrahydro-[1,2,4]triazolo[4,3-a]pyrazine-7-carbonyl)pyrrolidin-1-yl)ethanone], the IC50 is reported as > 10000 nM.
For `CC(=O)c1nn(CC(=O)N2C[C@H](F)C[C@H]2C(=O)Nc2cccc(-c3cc(S(N)(=O)=O)ccc3Cl)c2F)c2ccc(-c3cnc(C)nc3)cc12` [Compound 525, (2S,4R)-1-(2-(3-acetyl-5-(2-methylpyrimidin-5-yl)-1H-indazol-1-yl)acetyl)-N-(2′-chloro-2-fluoro-5′-sulfamoylbiphenyl-3-yl)-4-fluoropyrrolidine-2-carboxamide], the IC50 was < 1000 nM.
